Holding throughout (assay type): cell-based, rat
Experiment [1] has as its system cerebellar granule neurons. In words: Effect of inhibition of signal transduction pathways on neuroprotection by 1,4-benzoxazines in LK-treated cerebellar granule neurons. As to conditions: LK medium, 24 h; for effect of pharmacological inhibition of the MEK-ERK and PI-3K-Akt pathways on neuroprotective action: PD98059 40 μM, U0126 10 μM, Wortmannin 100 nm, Akt inhibitor-X 5 μM, DAPI. How it is done:
Cultures of cerebellar granule neurons were switched to LK medium, LK medium containing of HSB-13, or LK medium containing HSB-13 and either PD98059 (40 μM), U0126 (10 μM), Wortmannin ([…]), Akt inhibitor-X (5 μM), KN-62 (10 μM), H89 (10 μM) and TSA (1 μM). Viability was quantified 24 h later by DAPI staining. The results were normalized to viability in control cultures which were switched to HK medium;
The Raf-MEK-ERK and P1-3 kinase-Akt signaling are two well-established and powerful anti-apoptotic pathways in mammalian cells that mediate the protective effects of a number of neurotrophic polypeptides, pharmacological agents, and neuroprotective compounds (D'Mello and Chin, 2005; Hetman et al., 2006). To determine whether either of these pathways was involved in the neuroprotective effect of 1,4-benzoxazines the inventors studied whether the pharmacological inhibition of these pathways affected their neuroprotective efficacy. […] Similarly, none of the compounds tested (the PI-3 kinase inhibitor, wortmannin, the Akt inhibitor X, or a commercially available inhibitor of Akt) reduced the ability of HSB-13 to protect neurons against LK-induced apoptosis (FIG. 3). […] As observed for HSB-13, pharmacological inhibition of the MEK-ERK and PI-3K-Akt pathways had no effect on the neuroprotective actions of ASK-2a or HSB-22.
Treatment of cerebellar granule neurons with HK activates calcium-calmodulin kinase (CaMK) and inhibition of CaMK with pharmacological inhibitors such as KN-62 inhibits HK-mediated survival (See et al., 2001; Linseman et al., 2003; Morrison et al., 2006). […] The present inventors recognized that several investigators have shown that cyclic AMP analogs and pharmacological activators of protein kinase A promote survival of cerebellar granule neurons as well as other neuronal types in the absence of other survival-promoting stimuli (Rydel and Greene, 1988; D'Mello et al., 1993; Hanson et al., 1998). PKA-mediated neuronal survival is blocked by treatment with H89, a potent and selective PICA inhibitor (Li et al., 2000; Bhave and Hoffman, 2004). […] The inventors have previously reported that histone deacetylase inhibitors such as trichostatin A block the ability of HK to maintain the survival of cerebellar granule neurons (Salminen et al., 1998; Boutillier et al., 2002; Morrison et al., 2006).

The test system of another experiment is phospho-MEK. Description: Western blot of signaling proteins in LK-treated cerebellar granule neurons: phospho-MEK. As to conditions: LK medium with compound, 3 h. Here is the method:
(§1) Cultures of cerebellar granule neurons were switched to HK medium, LK medium, or LK medium containing of HSB-13, HSB-22, or ASK-2a for 3 h. Total cell lysates were prepared and analyzed by Western blotting using antibodies against phospho-Akt (Ser473), phospho-MEK, phospho-ERK, and phospho-GSK3β.
(§2) The culture medium was removed and the cells were washed twice with ice-cold phosphate-buffered saline (PBS) and lysed in lysis buffer [1% Triton, 20 mM Tris-HCl (pH 7.5), 150 mM NaCl, 1 mM Na2EDTA, 1 mM EGTA, 2.5 mM sodium pyrophosphate, 1 mM beta-glycerophosphate, 1 mM Na3VO4, 1 μg/mL leupeptin and 1 protease inhibitor mixture]. Protein concentrations were measured and normalized using Bradford protein assay reagent (Bio-Rad, Hercules, Calif., USA). Following normalization, 40 μg of protein was subjected to Western blotting. Immunoreactivity was examined by enhanced chemiluminescence (Amersham Bioscience, Piscataway, N.J., USA).
(§3) Activation of MEK, ERK and Akt requires their phosphorylation, which can be detected using phospho-specific antibodies. As previously reported by the inventors and others (Chin et al., 2004; Johnson et al., 2005; Majdzadeh et al., 2008), MEK and ERK phosphorylation decreases following LK treatment of cerebellar granule neurons. This decrease is not prevented by HSB-13, HSB-22, or ASK-2a (FIG. 4). […] This is also not affected by treatment with ASK-2a or HSB-22 (FIG. 4).

A further experiment concerns c-jun. Description: Western blot of c-jun expression in LK-treated cerebellar granule neurons. As to conditions: 25 μM, 3 h. Here is the method:
(§4) Cerebellar neuron cultures were treated for 3 h with HK, LK, or LK medium containing 25 μM HSB-13, 25 μM ASK-2a, or 25 μM HSB-22. Whole cell lysates were then prepared and subjected to Western blot analysis using antibodies against c-jun and ATF-3.
as §2
(§5) C-jun expression is induced in a variety of tissue culture and in vivo paradigms of neuronal apoptosis (Schenkel et al., 2004). […] Treatment with HSB-13 inhibited c-jun expression even lower that that seen in HK-treated cultures. […] The suppression of ATF-3 expression using siRNA inhibits LK-mediated death of cerebellar granule neurons has been previously been described by the present inventors (Chen et al., 2008a). […] As observed with c-jun, the suppression was most robust with HSB-13. As a result these compositions can inhibit the activity of c-jun and ATF-3, which in turn play a role in treating cancer and oncoproteins like c-jun.
Background: In western blotting, separated proteins are transferred to a membrane and probed.

A further experiment concerns ATF-3. In words: Western blot of ATF-3 expression in LK-treated cerebellar granule neurons. The conditions noted are these: 25 μM, 3 h. How it is done: as §4, §2, §5
In a further experiment the test system is phospho-GSK3β. Description: Western blot of signaling proteins in LK-treated cerebellar granule neurons: phospho-GSK3β. As to conditions: LK medium with compound, 3 h. How it is done: as §1, §2
Since the Raf-MEK-ERK and the PI-3 Kinase-Akt pathways are not required for neuroprotection by HSB-13, the involvement of other signaling molecules that are known to promote neuronal survival was determined. GSK3β is a proapoptotic molecule that is activated during apoptosis in many neuronal and non-neuronal systems. Under survival promoting conditions GSK3β is kept inactivated by phosphorylation at an inhibitory site, a modification that can be induced by Akt as well as by other kinases.

In the next experiment the test system is phospho-Akt (Ser473). In words: Western blot of signaling proteins in LK-treated cerebellar granule neurons: phospho-Akt (Ser473). The conditions noted are these: LK medium with compound. How it is done:
as §1, §2, §3

For a further experiment, the system named is phospho-ERK. Description: Western blot of signaling proteins in LK-treated cerebellar granule neurons: phospho-ERK. As to conditions: LK medium with compound, 3 h. Here is the method: as §1, §2, §3

Take `O=C1Nc2ccccc2OC1=Cc1cc(Br)c(O)c(Br)c1` [ASK-2a]: the “effect of pharmacological inhibition of the MEK-ERK and PI-3K-Akt pathways on neuroprotective action” value in experiment [1] is “no effect”. Further, in the experiment with phospho-MEK, the “LK-induced decrease of MEK phosphorylation” value is on record as “not prevented”. Further, the “induction of c-jun expression by LK” value in the experiment with c-jun is given as “inhibited”. In addition, the “LK-mediated increase in ATF-3” value in the experiment on ATF-3 is recorded as “inhibited”. For the same molecule, the “dephosphorylation of GSK3β in LK” value with phospho-GSK3β is listed as “inhibit dephosphorylation”. Besides, the “phosphorylation of Akt at Ser473 in LK” value in the experiment with phospho-Akt (Ser473) is “not affected”. Also, the “LK-induced decrease of ERK phosphorylation” value with phospho-ERK is recorded as “not prevented”.
Turning to `Nc1ccc2c(c1)NC(=O)/C(=C/c1cc(Br)c(O)c(Br)c1)O2` [HSB-13, (Z)-6-amino-2-(3,′5′-dibromo-4′-hydrozybenzylidene)-2H-benzo[b][1,4]oxazin-3(4H)-one], the “neuroprotection in the presence of H89” value in experiment [1] (H89 10 μM (PKA inhibitor)) is on record as “no effect”. The “neuroprotection in the presence of KN-62” value in experiment [1] (KN-62 10 μM (CaMK inhibitor)) was “not, however, reduced”. Besides, the “effect of pharmacological inhibition of the MEK-ERK and PI-3K-Akt pathways on neuroprotective action” value in experiment [1] was “no effect”. The “neuroprotection in the presence of TSA” value in experiment [1] (TSA 1 μM (histone deacetylase inhibitor)) is “did not inhibit”. For the same molecule, in the experiment on phospho-MEK, the “LK-induced decrease of MEK phosphorylation” value is “not prevented”. Besides, the “induction of c-jun expression by LK” value with c-jun is “inhibited”. Moreover, the “LK-mediated increase in ATF-3” value in the experiment with ATF-3 is on record as “inhibited”. The “dephosphorylation of GSK3β in LK” value in the experiment with phospho-GSK3β is “not inhibited”. Moreover, the “phosphorylation of Akt at Ser473 in LK” value in the experiment with phospho-Akt (Ser473) was “inhibits Akt (Ser473) phosphorylation even more than that seen in LK”. Besides, the “LK-induced decrease of ERK phosphorylation” value with phospho-ERK is listed as “not prevented”.
For `O=C1Nc2cc(Cl)ccc2O/C1=C\c1cc(Br)c(O)c(Br)c1` [HSB-22], the “effect of pharmacological inhibition of the MEK-ERK and PI-3K-Akt pathways on neuroprotective action” value in experiment [1] is listed as “no effect”. In addition, the “LK-induced decrease of MEK phosphorylation” value with phospho-MEK is on record as “not prevented”. In addition, the “induction of c-jun expression by LK” value in the experiment with c-jun is reported as “inhibited”. In the experiment on ATF-3, the “LK-mediated increase in ATF-3” value was “inhibited”. In addition, the “dephosphorylation of GSK3β in LK” value with phospho-GSK3β is reported as “inhibit dephosphorylation”. In addition, the “phosphorylation of Akt at Ser473 in LK” value in the experiment on phospho-Akt (Ser473) is recorded as “not affected”. Besides, the “LK-induced decrease of ERK phosphorylation” value in the experiment with phospho-ERK is recorded as “not prevented”.

The record behind these values is patent publication US8680094B2, “1, 4-benzoxazine compounds and derivatives thereof as therapeutic drugs for the treatment of neurodegenerative conditions” (Board of Regents, The University of Texas System, priority 2008, dated 2014).
